Experimental data taken from paper PMC9317316, “Synthesis and Evaluation of Some New 4H-Pyran Derivatives as Antioxidant, Antibacterial and Anti-HCT-116 Cells of CRC, with Molecular Docking, Antiproliferative, Apoptotic and ADME Investigations” (Pharmaceuticals, 2022).
Where “and” joins values, the source holds several entries; their conditions need not be identical. Equal entries are not always repeated. Where two headings read alike, the source gives them in different places.

Tests used:
[1] = DPPH radical scavenging assay
Method: The IC50 values for DPPH were calculated from the plot of the scavenging effect against the compound concentration.
The compounds’ capacities to scavenge the stable radical 1,1 diphenyl-2-picrylhydrazyl (DPPH) formed in solution by donation of a hydrogen atom or an electron was investigated according to the method described by Bersuder and coworkers. Due to the fact that the initial blue/purple solution of diphenyl picrylhydrazine changes to yellow in the presence of compounds with a capacity to scavenge DPPH free radicals, this reaction is used as a measure of a compound’s ability to scavenge any free radical. Briefly, a 0.5 mL volume of DPPH ethanolic solution was mixed with an equal volume of each sample concentration (0.03 to 1 mg/mL), shaken strongly and incubated at room temperature for 1 h in darkness. The absorbance of the residual DPPH radicals was measured at 519 nm and compared to that of the control (without the tested compound). DPPH radical scavenging was calculated using the following formula: Scavenging effect (%) = (1 − Acompound/AControl) × 100, where Acompound and Acontrol are the absorbances of the tested compound and of the control, respectively. A plot of the scavenging effect (%) versus the sample concentration was also performed to determine the compound concentration providing 50% inhibition (IC50).

[2] = Reducing power assay (FRAC, Fe3+ to Fe2+); conditions: 0-1 mg/mL, absorbance 700 nm
Method: Secondly, FRAC was determined over the concentration range of 0.0−1 mg/mL via monitoring Fe^3+−Fe^2+ transformation in the presence of the studied compounds and the reference antioxidant BHT to estimate the values of efficient concentration (EC50), expressed in mM.
The reducing power of the studied compounds was assessed according to Oyaizu’s method. Briefly, different concentrations (ranging from 0 to 1 mg/mL) of each tested compound were first mixed with 1 mL of 0.2 M sodium phosphate buffer (pH 6.6) and 1 mL of 1% potassium ferricyanide (K3Fe(CN)6) and incubated at 50 °C for 20 min. After the addition of 1.25 mL of 20% trichloroacetic acid (TCA), the mixture was centrifuged for 10 min at 3000 rpm and the upper layer solution was then mixed with 0.5 mL of 0.1% fresh ferric chloride and an equal volume of deionized water. Finally, the absorption of the resulting mixture was measured at 700 nm using a UV spectrophotometer against distilled water as the blank, while butylated hydroxytoluene (BHT) was used as a positive control. The sample ferric reducing power capability was indicated by increased absorbance.

B. cereus (ATCC 14579) [3] = experiment: Antibacterial agar diffusion method (inhibition zone); type: cell-based
Method: (§1) The results for the in vitro antibacterial properties of the synthesized compounds against five Gram-positive and four Gram-negative human-pathogenic strains, which were assessed by both the agar diffusion method (based on inhibition zone (IZ)) and the broth dilution bioassay (for the determination of the half-maximal inhibitory concentration (IC50) values), using ampicillin as the reference antibiotic drug, are shown in Table 2 and Table 3.
(§2) The antibacterial activity of all synthesized compounds was evaluated against the Gram-negative strains E. coli (ATCC 25966), K. pneumonia (ATCC 700603), P. aeruginosa (ATCC 27853) and S. enteric (ATCC 43972) and against the Gram-positive strains B. cereus (ATCC 14579), B. subtilis (ATCC 6633), E. faecalis (ATCC 29122), S. aureus (ATCC 25923) and S. epidermidis (ATCC 14990), using the agar diffusion method through measuring the appearance of the inhibition zone on the surface of the top agar, as reported by Berghe and Vlietinck. Ampicillin (10 µg/well) was used as the positive reference standard. Bacterial viability was also investigated by determining the colony-forming ability (CFU) of bacteria incubated at different time intervals without or with appropriate amounts of the compound, which were mixed with 2 ×10^7 CFU/mL in sterile BHI and incubated under shaking for 60 min at 37 °C. Samples were serially diluted into sterile BHI, streaked onto media agar plates and incubated for 24 h at 37 °C. The antibacterial potency of the tested compounds was expressed as the residual number of CFUs with reference to the initial inoculums. The results presented as the half-maximal (50 %) inhibitory concentration (IC50) values are the means of three different measurements.

B. subtilis (ATCC 6633) [4] = experiment: as above; type: cell-based
Method: as §1, §2

E. coli (ATCC 25966) [5] = experiment: as above; type: cell-based; conditions: E. coil (ATCC 25966)
Method: as §1, §2

E. faecalis (ATCC 29122) [6] = experiment: as above; type: cell-based
Method: as §1, §2

[7] = system: K. pneumonia (ATCC 700603); experiment: as above; type: cell-based
Method: as §1, §2

[8] = system: P. aeruginosa (ATCC 27853); experiment: as above; type: cell-based
Method: as §1, §2

S. aureus (ATCC 25923) [9] = experiment: as above; type: cell-based
Method: as §1, §2

S. enteric (ATCC 43972) [10] = experiment: as above; type: cell-based
Method: as §1, §2

[11] = system: S. epidermidis (ATCC 14990); experiment: as above; type: cell-based
Method: as §1, §2

B. cereus (ATCC 14579) [12] = experiment: Antibacterial viability (CFU) assay, IC50; type: cell-based; conditions: Bacillus cereus, ATCC14579
Method: as §1, §2

B. subtilis (ATCC 6633) [13] = experiment: Antibacterial viability (CFU) assay, IC50; type: cell-based
Method: as §1, §2

E. coli (ATCC 25966) [14] = experiment: Antibacterial viability (CFU) assay, IC50; type: cell-based; conditions: Escherichia coli, ATCC25966; E. coil (ATCC 25966)
Method: as §1, §2

E. faecalis (ATCC 29122) [15] = experiment: Antibacterial viability (CFU) assay, IC50; type: cell-based; conditions: Enterococcus faecalis, ATCC29122
Method: as §1, §2

[16] = system: K. pneumonia (ATCC 700603); experiment: Antibacterial viability (CFU) assay, IC50; type: cell-based; conditions: Klebsiella pneumoniae, ATCC700603
Method: as §1, §2

[17] = system: P. aeruginosa (ATCC 27853); experiment: Antibacterial viability (CFU) assay, IC50; type: cell-based; conditions: Pseudomonas aeruginosa, ATCC27853
Method: as §1, §2

S. aureus (ATCC 25923) [18] = experiment: Antibacterial viability (CFU) assay, IC50; type: cell-based; conditions: Staphylococcus aureus, ATCC25923
Method: as §1, §2

S. enteric (ATCC 43972) [19] = experiment: Antibacterial viability (CFU) assay, IC50; type: cell-based; conditions: read-out: IC50
Method: as §1, §2

[20] = system: S. epidermidis (ATCC 14990); experiment: Antibacterial viability (CFU) assay, IC50; type: cell-based; conditions: Staphylococcus epidermidis, ATCC14990
Method: as §1, §2

HCT-116 cells = experiment: Cell viability (cytotoxicity, LDH release) assay; type: cell-based; conditions: Homo sapiens, 24 h
Method: The synthesized compounds were also examined at four concentrations (10, 25, 50 and 100 µg/mL) for their cytotoxic effects on human colorectal cancer HCT-116 cells after their incubation together for 24 h.
Cytotoxic potency was examined for a human colon cancer cell line HCT-116 (American Type Culture Collection; Manassas, VA, USA) using various amounts of each compound (10, 25, 50 and 100 µg). Samples were diluted in Dulbecco’s Modified Eagle’s Medium, consisting of 10% Fetal Bovine Serum, and added to cells grown and cultured for 24 h in a 5% CO2-humidified incubator at 37 °C. Then, the activity of lactate dehydrogenase released from damaged cells was determined in the collected supernatant aliquots using an ELISA endpoint assay (Benchmark Plus, Bio-Rad, Hercules, CA, USA). As positive and negative controls, respectively, 0.1% Triton X-100 in the assay medium and the assay medium only were used. Cell viability, shown as mean values ± SDs (n = 3), was expressed as a relative percentage of the OD values determined at 600 nm in compound-treated cells and the control.

[21] = Bacillus subtilis, ATCC6633, B. subtilis (ATCC 6633)

SMILES	IZ (mm) (B. cereus (ATCC 14579) [3])	IZ (mm) (B. subtilis (ATCC 6633) [4])	IZ (mm) (E. coli (ATCC 25966) [5])	IZ (mm) (E. faecalis (ATCC 29122) [6])	IZ (mm) [7] [mm]	IZ (mm) [8] [mm]	IZ (mm) (S. aureus (ATCC 25923) [9])	IZ (mm) (S. enteric (ATCC 43972) [10])	IZ (mm) [11] [mm]	IC50 (B. cereus (ATCC 14579) [12]) [µM]	IC50 (B. subtilis (ATCC 6633) [13]; [21]) [µM]	IC50 (E. coli (ATCC 25966) [14]) [µM]	IC50 (E. faecalis (ATCC 29122) [15]) [µM]	IC50 [16] [µM]	IC50 [17] [µM]	IC50 (S. aureus (ATCC 25923) [18]) [µM]	IC50 (S. enteric (ATCC 43972) [19]) [µM]	IC50 [20] [µM]	also measured
CC1=C(C(=O)OCc2ccccc2)C(c2ccc(F)cc2)C(C#N)=C(N)O1 (stereo not shown) [4i, 6-Amino-5-cyano-4-(4-fluoro-phenyl)-2-methyl-4H-pyran-3-carboxylic acid benzyl ester]	14.50 ± 0.71	9.50 mm and 9.50 ± 0.71 mm	5.5 ± 0.71	6.50 ± 0.71	6.5 ± 0.7	8.5 ± 0.7	9.50 ± 2.12	8.0 ± 1.4	11.50 ± 0.71	38 ± 1.37	23.6 to 36.8	82.6 ± 1.65	37.5 ± 1.37	79.9 ± 3.02	62 ± 2.2	40.2 ± 1.37	91.5 ± 2.74	46 ± 0.96	IC50 ([1]; 0.03 to 1 mg/mL, 1 h, mean ± SD, triplicate, read-out: IC50 (mM) for DPPH Scavenging Potency): 1.78 ± 0.115 mM; DPPH Radical Scavenging Effenciency (%) at 1 mg/mL ([1]; at 1 mg/mL): 26.05 ± 1.06%; EC50 [2]: 274 ± 39 µM; IC50 (B. subtilis (ATCC 6633) [13]; B. subtilis (ATCC 6633)): 31.6 ± 1.95 µM; viability at 100 µg/mL (HCT-116 cells; 100 µg/mL, read-out: percent of viable cells): 11 to 32.5%; IC50 (HCT-116 cells; read-out: Mean IC50 (µM) of cytotoxicity): 181 ± 12.4 µM; IC50 (HCT-116 cells; read-out: Mean IC50 (µg/mL) of cytotoxicity): 66 ± 4.53 µg/mL; melting point: 124 to 126 °C
CC1(C)S[C@@H]2[C@H](NC(=O)[C@H](N)c3ccccc3)C(=O)N2[C@H]1C(=O)O [Ampicillin, reference compound]	23.50 ± 0.71	25.50 ± 0.71 mm	23.5 ± 0.71	24.50 ± 0.71	21.0 ± 1.4	21.5 ± 0.7	21.50 ± 0.71	19.5 ± 0.7	22.50 ± 0.71	25.8 ± 0.57	37.2 ± 1.43	58 ± 4.87	36.5 ± 3.03	32.9 ± 2.29	41.5 ± 1.72	38.6 ± 2	14.9 ± 0.34	50.1 ± 3.43	IZ (mm) (B. cereus (ATCC 14579) [3]; listed as ampicillin): 23.50 mm; IZ (mm) (B. subtilis (ATCC 6633) [4]; listed as ampicillin): 25.50 mm; IZ (mm) (E. faecalis (ATCC 29122) [6]; listed as ampicillin): 24.50 mm; IZ (mm) (S. aureus (ATCC 25923) [9]; listed as ampicillin): 21.50 mm; IZ (mm) ([11]; listed as ampicillin): 22.50 mm
